# Test results: PMC6151598, “Soluble Epoxide Hydrolase Inhibitory Activity of Components Isolated from Apios americana Medik” (Molecules : A Journal of Synthetic Chemistry and Natural …, 2017)
# Values joined by “and” are separate entries in the source; they are usually repeats but may differ in a detail not shown here. Equal values may be shown once.
# What was measured:
# estrogen receptors = tested on: estrogen receptors; set-up: method as in PMID 23402539, PMID 26806328; conditions: cited from earlier work
# [1] = target: T1, soluble epoxide hydrolase (sEH) (Homo sapiens, UniProt P34913); assay: sEH inhibition assay (fluorometric, PHOME substrate); format: biochemical; conditions: for IC50: concentrations 6.2 to 100 μM, triplicate, read-out: IC50, inhibitory activity on sEH; for Inhibitory ratio on sEH: tested at 100 μM, % of the control value
# T1 construct: purchased Cayman (Ann Arbor, MI, USA) 10011669
# T1 sequence (P34913 1-555): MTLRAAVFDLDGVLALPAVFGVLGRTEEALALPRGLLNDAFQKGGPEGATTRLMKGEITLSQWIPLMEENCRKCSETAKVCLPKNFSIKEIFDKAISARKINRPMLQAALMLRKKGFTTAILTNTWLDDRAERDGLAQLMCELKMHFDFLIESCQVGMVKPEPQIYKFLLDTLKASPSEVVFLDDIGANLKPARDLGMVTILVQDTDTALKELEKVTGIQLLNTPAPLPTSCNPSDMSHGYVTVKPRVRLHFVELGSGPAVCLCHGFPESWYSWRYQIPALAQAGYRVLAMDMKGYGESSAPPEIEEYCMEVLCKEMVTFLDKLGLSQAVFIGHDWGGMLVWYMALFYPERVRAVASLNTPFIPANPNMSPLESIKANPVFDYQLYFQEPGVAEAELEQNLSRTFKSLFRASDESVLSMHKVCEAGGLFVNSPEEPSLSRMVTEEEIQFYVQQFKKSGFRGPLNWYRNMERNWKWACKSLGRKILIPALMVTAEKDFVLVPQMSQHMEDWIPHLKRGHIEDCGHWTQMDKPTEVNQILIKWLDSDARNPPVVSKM
# Method: The sEH assay was performed as described previously. Briefly, 130 µL of sEH in 25.0 mM Bis-Tris-HCl buffer (pH 7.0) and 20.0 µL of the compounds (1–0.06 mM concentration) diluted in MeOH, were added in 96-well plate, to which 50.0 µL of 20.0 µM PHOME was added in the mixture. After initiating the enzyme reaction at 37 °C, the products by hydrolysis of the substrate were monitored at excitation and emission of 330 and 465 nm for one hour. Inhibitory activity (%) = 100 − [(C40 − C0) − (S40 − S0)/(C40 − C0)] × 100 (1) where C40 and S40 were the fluorescence of the control and inhibitor, respectively, after 40 min, S0 and C0 is the fluorescence of inhibitor and control, respectively, at 0 min.
# [2] = target: T1, soluble epoxide hydrolase (sEH); assay: sEH enzyme kinetics (Lineweaver–Burk and Dixon plots); format: biochemical; conditions: for Binding mode (inhibition type): Lineweaver–Burk plot
# androgen receptors = tested on: androgen receptors; set-up: method as in PMID 23402539, PMID 26806328; conditions: cited from earlier work
Compound,Binding activity with estrogen receptors (estrogen receptors),IC50 [1],Inhibitory ratio on sEH [1],Binding mode (inhibition type) [2],Blocking of [3H]-dihydrotestosterone binding with androgen receptors (androgen receptors),other results
O=c1c(-c2ccc(O)cc2O)coc2cc(O)cc(O)c12 [2′-hydroxygenistein],binding activities,–,–,–,–,–
"COc1cc(O)cc2c1C(=O)C1(O)c3ccc(O)cc3OC1O2 (centres unmarked) [Compound 1, 5-methoxy-2,5,7,4′-tetrahydroxy-coumaronochromone]",–,< 50 µM and 43.2 µM,over 50%,competitive inhibitor,–,"Ki ([2]; inhibitor 0, 25, 50 μM, substrate 3.1 to 25 μM, read-out: Ki (Dixon plot)): 21 µM"
"O=c1c(-c2ccc(O)cc2)coc2cc(O)cc(O)c12 [Compound 2, genestein]",binding activities,–,–,mixed inhibitor,–,–
"O=c1c(-c2ccc(O)cc2O)coc2cc(O[C@@H]3O[C@H](CO)C(O)[C@H](O)C3O)cc(O)c12 (some centres unmarked) [Compound 6, 2′-hydroxygenistein-7-O-glucoside]",–,–,–,–,blocked the binding,–
"O=c1c(-c2ccc(O)cc2O)coc2cc(O[C@@H]3O[C@H](CO[C@@H]4O[C@H](CO)[C@@H](O)[C@H](O)[C@H]4O)[C@@H](O)[C@H](O)[C@H]3O)cc(O)c12 [Compound 7, 2′-hydroxygenistein-7-O-gentibioside]",–,–,–,–,blocked the binding,–
"O=C(O)c1ccc(O)cc1 [Compound 8, 4-hydroxybenzoic acid]",–,69.3 ± 1.9 µM,over 50%,–,–,–
